In patent publication US9560869B2, “Food composition comprising desferrichrysin” (NESTEC S.A., priority 2013, dated 2017):

Key:
[1] = in vivo; cited from earlier work
[2] = Colour difference of iron fortified strawberry/banana yoghurt vs yoghurt with no iron salts after flash pasteurization (CIELAB); format: physicochemical
Method: (§1) Commercial yoghurt, Nestlé Jogolino™ Strawberry/Banana yoghurt containing 15% banana puree and 10% strawberry puree was iron fortified by the addition of different iron salts to 5 kg yoghurt as reported in the table below. The amounts were chosen to provide approximately 0.8 mg iron per 100 g yoghurt. […] Colour measurements were performed in 1×1 cm polystyrene cuvettes using an X-Rite ColorEye 7000A colorimeter. The colorimeter was set up with a D65 light source, 10 degree observer angle and with specular component included. The colour difference between the yoghurt with no iron salts and the iron fortified yoghurt was measured for each iron salt and expressed as ΔEab* using the CIELAB colour scale.

[3] = Colour change of fortified yoghurt during storage at 37° C. for 120 days (CIELAB); format: physicochemical; conditions: for colour change over time (in words): stored at 37° C. for 120 days
Method: as §1, with “scale. 70 g samples of the fortified yoghurt samples described above were placed in 100 mL glass jars and stored at 37° C. for 120 days. Colour measurements were performed at a range of time intervals.” for “scale.”

| ΔEab* ([2]; colour difference vs yoghurt with no iron salts, approx. 0.8 mg iron per 100 g yoghurt, flash pasteurized at 105° C. for 2 minutes) | ΔEab* day 7 ([3]; stored at 37° C., vs colour immediately after pasteurization, day 7) | ΔEab* day 30 ([3]; stored at 37° C., vs colour immediately after pasteurization, day 30) | ΔEab* day 60 ([3]; stored at 37° C., vs colour immediately after pasteurization, day 60) | ΔEab* day 120 ([3]; stored at 37° C., vs colour immediately after pasteurization, day 120) | Compound | bioavailability of iron (in words) [1] | colour compared with yoghurt with no added iron (in words) ([2]; after flash pasteurization at 105° C. for 2 minutes) | colour change over time (in words) [3] |
| --- | --- | --- | --- | --- | --- | --- | --- | --- |
| 1.57 | 1.03 | 1.32 | 3.77 | 6.46 | Ferrichrysin | good source of bioavailable iron | closest colour to the yoghurt with no added iron | smaller than the yoghurts fortified by the other iron salts |
| – | – | – | – | – | O=S(=O)([O-])[O-].[Fe+2] [FeSO4 × H20, Ferrous sulphate, reference compound] | – | – | much greater colour changes |
